# Assay results from the supplement of paper PMC10307832.
# Experiments:
# Experiment in all cases: relative viability (nuclei count vs DMSO), 5 days (fraction); higher = more cells survive
# Carboplatin + Phenformin = compound: C1CC(C1)(C(=O)O)C(=O)O.[NH2-].[NH2-].[Pt+2] [Carboplatin] + N=C(N)NC(=N)NCCc1ccccc1 [Phenformin] (partner 250 µM)
# Procedure, shortened: (§1)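 Values are medians from duplicate plates. Each reflects relative viability, defined as the nuclei count of treated wells over that of vehicle wells. Lung cancer cell lines in 1536-well plates were pin-tool dosed one day after seeding with one drug alone or with a fixed anchor-drug dose plus five library-drug doses (not always all listed) in √10 steps, then fixed, stained and imaged at 4× after 5 days.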
# MLN4924 + Bortezomib = compound: NS(=O)(=O)OC[C@@H]1C[C@@H](n2ccc3c(N[C@H]4CCc5ccccc54)ncnc32)C[C@@H]1O [MLN4924] + CC(C)C[C@H](NC(=O)[C@H](Cc1ccccc1)NC(=O)c1cnccn1)B(O)O [Bortezomib] (partner 0.002 µM)
# Procedure, shortened: as §1
# Carboplatin + Crizotinib = compound: C1CC(C1)(C(=O)O)C(=O)O.[NH2-].[NH2-].[Pt+2] [Carboplatin] + C[C@@H](Oc1cc(-c2cnn(C3CCNCC3)c2)cnc1N)c1c(Cl)ccc(F)c1Cl [Crizotinib] (partner 1 µM)
# Procedure, shortened: as §1
# GSK126 + Dasatinib = compound: CC[C@H](C)N1C=C(C2=C(C=C(C=C21)C3=CN=C(C=C3)N4CCNCC4)C(=O)NCC5=C(C=C(NC5=O)C)C)C [GSK126] + Cc1nc(Nc2ncc(C(=O)Nc3c(C)cccc3Cl)s2)cc(N2CCN(CCO)CC2)n1 [Dasatinib] (partner 0.075 µM)
# Procedure, shortened: as §1
Cell Line,relative viability (Carboplatin + Phenformin; first compound 0.08 µM),relative viability (Carboplatin + Phenformin; first compound 0.253 µM),relative viability (Carboplatin + Phenformin; first compound 0.8 µM),relative viability (Carboplatin + Phenformin; first compound 2.53 µM),relative viability (Carboplatin + Phenformin; first compound 8 µM),relative viability (MLN4924 + Bortezomib; first compound 0.1265 µM),relative viability (MLN4924 + Bortezomib; first compound 0.4 µM),relative viability (MLN4924 + Bortezomib; first compound 1.265 µM),relative viability (MLN4924 + Bortezomib; first compound 4 µM),relative viability (Carboplatin + Crizotinib; first compound 0.08 µM),relative viability (Carboplatin + Crizotinib; first compound 0.253 µM),relative viability (Carboplatin + Crizotinib; first compound 0.8 µM),relative viability (Carboplatin + Crizotinib; first compound 2.53 µM),relative viability (Carboplatin + Crizotinib; first compound 8 µM),relative viability (GSK126 + Dasatinib; first compound 0.08 µM),relative viability (GSK126 + Dasatinib; first compound 0.253 µM),relative viability (GSK126 + Dasatinib; first compound 0.8 µM),relative viability (GSK126 + Dasatinib; first compound 2.53 µM),relative viability (GSK126 + Dasatinib; first compound 8 µM),relative viability (MLN4924 + Bortezomib; first compound 0.04 µM)
CAL-12T,0.56,0.584,0.591,0.534,0.557,0.971,0.659,0.369,0.22,0.856,0.7,0.738,0.66,0.707,0.582,0.515,0.531,0.512,0.45,–
COR-L23,0.453,0.394,0.428,0.353,0.241,0.915,0.587,0.186,0.105,0.561,0.645,0.606,0.48,0.28,0.594,0.488,0.488,0.392,0.415,0.936
COR-L 105,0.576,0.418,0.481,0.411,0.373,0.396,0.252,0.242,0.41,0.814,0.812,0.757,0.609,0.501,0.356,0.331,0.342,0.288,0.398,0.629
ChaGo-K-1,0.459,0.508,0.467,0.381,0.392,0.53,0.436,0.337,0.278,1.14,1.09,0.943,0.647,0.579,0.653,0.552,0.629,0.572,0.547,0.535
EKVX,0.248,0.214,–,0.227,0.22,0.711,0.475,0.236,0.135,1.19,1.09,0.985,0.875,0.947,0.523,0.309,0.543,0.589,0.508,0.806
EMC-BAC-2,0.559,0.581,0.52,0.521,0.461,0.842,0.274,0.162,0.155,0.738,0.755,0.76,0.681,0.642,0.346,0.339,0.176,0.259,0.332,0.96
EPLC-272H,0.345,0.347,0.309,0.298,0.313,0.927,0.131,0.163,0.177,0.975,1.05,0.892,0.888,0.937,0.456,0.375,0.321,0.404,0.327,0.808
H3255,0.291,0.381,0.395,0.349,0.364,0.707,0.262,0.2,0.32,0.874,0.884,0.825,0.79,0.726,0.396,0.383,0.393,0.419,0.346,0.559
HARA,0.466,0.518,0.372,0.426,0.425,0.516,0.218,0.101,0.0858,1.01,1.06,0.934,0.824,0.954,0.3,0.281,0.226,0.262,0.241,0.918
HCC-15,0.562,0.47,0.441,0.407,0.37,0.53,0.234,0.102,0.0928,0.914,0.875,0.775,0.688,0.643,0.728,0.671,0.578,0.609,0.653,0.685
HCC-78,0.829,0.685,0.641,0.726,0.744,0.397,0.51,0.241,0.229,0.367,0.325,0.315,0.308,0.304,0.423,0.51,0.357,0.355,0.367,0.568
HCC-366,0.619,0.637,0.662,0.575,0.467,1.01,0.911,0.293,0.0253,0.518,0.659,0.445,0.465,0.154,0.77,0.654,0.586,0.696,0.591,1.04
HCC-827,0.444,0.394,0.428,0.366,0.365,0.966,0.791,0.474,0.375,0.97,0.93,0.916,0.816,0.87,0.333,0.275,0.401,0.396,0.287,1.05
HOP-62,0.713,0.643,0.628,0.654,0.548,0.402,0.117,0.0531,0.0923,1.04,1,0.925,0.88,0.534,0.829,0.583,0.636,0.566,0.595,0.392
LC-2-ad,0.661,0.551,0.525,0.517,0.386,0.859,0.41,0.226,0.104,0.478,0.448,0.388,0.31,0.416,0.606,0.66,0.565,0.643,0.585,0.943
LCLC-97TM1,0.483,0.399,0.421,0.438,0.394,0.46,0.107,0.046,0.0727,0.338,–,0.271,0.288,0.312,0.845,0.922,0.918,0.822,0.897,0.403

Cell Line,relative viability (Carboplatin + Phenformin; first compound 0.08 µM),relative viability (Carboplatin + Phenformin; first compound 0.253 µM),relative viability (Carboplatin + Phenformin; first compound 0.8 µM),relative viability (Carboplatin + Phenformin; first compound 2.53 µM),relative viability (Carboplatin + Phenformin; first compound 8 µM),relative viability (MLN4924 + Bortezomib; first compound 0.1265 µM),relative viability (MLN4924 + Bortezomib; first compound 0.4 µM),relative viability (MLN4924 + Bortezomib; first compound 1.265 µM),relative viability (MLN4924 + Bortezomib; first compound 4 µM),relative viability (Carboplatin + Crizotinib; first compound 0.08 µM),relative viability (Carboplatin + Crizotinib; first compound 0.253 µM),relative viability (Carboplatin + Crizotinib; first compound 0.8 µM),relative viability (Carboplatin + Crizotinib; first compound 2.53 µM),relative viability (Carboplatin + Crizotinib; first compound 8 µM),relative viability (GSK126 + Dasatinib; first compound 0.08 µM),relative viability (GSK126 + Dasatinib; first compound 0.253 µM),relative viability (GSK126 + Dasatinib; first compound 0.8 µM),relative viability (GSK126 + Dasatinib; first compound 2.53 µM),relative viability (GSK126 + Dasatinib; first compound 8 µM),relative viability (MLN4924 + Bortezomib; first compound 0.04 µM)
LCLC-103H,0.325,0.357,0.347,0.32,0.348,1.16,0.955,0.346,0.301,1.06,1.01,1.01,1.19,1.01,0.485,0.45,0.464,0.447,0.51,1.04
LOU-NH91,0.871,0.646,0.714,0.708,0.675,0.484,0.38,0.393,0.329,0.74,0.731,0.714,0.735,0.725,0.552,0.609,0.538,0.594,0.567,0.418
LU99A,0.958,0.854,0.738,0.809,0.647,0.316,0.407,0.159,0.138,0.62,0.665,0.556,0.464,0.422,0.648,0.467,0.718,0.526,0.568,0.873
LXF-289,0.566,0.584,0.519,0.539,0.502,0.707,0.516,0.269,0.162,0.821,0.839,0.708,0.796,0.764,0.31,0.223,0.19,0.257,0.358,0.928
NCI-H23,0.824,0.753,0.768,0.727,0.714,0.617,0.376,0.165,0.144,0.638,0.542,0.516,0.488,0.39,0.884,0.789,0.782,0.858,0.749,0.94
NCI-H322M,0.884,0.738,0.775,0.74,0.712,1.36,1.2,0.302,0.463,1.07,0.964,0.963,0.926,0.854,0.247,0.252,0.266,0.278,0.27,1.24
NCI-H441,0.769,0.963,1,0.876,0.839,0.29,0.236,0.145,0.191,0.72,0.925,0.618,0.791,0.655,0.618,0.688,0.458,0.796,0.407,0.876
NCI-H460,0.548,0.507,0.504,0.404,0.122,1.1,1.04,0.203,0.0203,0.799,0.809,0.76,0.614,0.16,0.562,0.483,0.455,0.421,0.569,0.998
NCI-H520,0.677,0.595,0.725,0.585,0.54,0.272,0.341,0.131,0.141,0.943,0.914,0.709,0.576,0.601,0.184,0.172,0.185,0.19,0.238,0.424
NCI-H596,0.871,0.767,0.768,0.638,0.67,1.02,0.709,0.885,0.974,0.895,0.983,0.834,0.783,0.735,0.692,0.537,0.633,0.887,0.594,1.08
NCI-H647,0.555,0.66,0.422,0.55,0.452,0.425,0.149,0.0614,0.0695,1.11,1.04,1.01,1.11,0.632,0.193,0.206,0.171,0.111,0.179,0.583
NCI-H650,0.495,0.451,0.398,0.428,0.398,0.456,0.233,0.179,0.202,0.789,0.697,0.569,0.506,0.567,0.468,0.493,0.432,0.39,0.455,0.439
NCI-H661,0.249,0.286,0.259,0.276,0.301,0.904,0.637,0.29,0.254,1,1.05,0.98,–,0.843,1.11,0.745,0.755,0.664,0.653,0.872
NCI-H727,0.504,0.652,0.454,0.497,0.365,0.512,0.313,0.267,0.225,0.988,0.953,0.704,0.614,0.317,0.353,0.36,0.39,0.416,0.348,0.624
NCI-H838,0.707,0.587,0.603,0.601,0.603,0.456,0.315,0.0967,0.122,0.838,0.918,0.784,0.861,0.797,0.344,0.308,0.313,0.266,0.209,0.807
NCI-H1355,0.524,0.478,0.465,0.405,0.451,1.23,1.12,0.54,0.178,1.16,1.18,1.02,1.02,1.02,0.842,0.733,0.705,0.842,0.727,1.1
